Measurements reported in patent US9957271B2, “Substituted bicyclic aza-heterocycles and analogues as sirtuin modulators” (GlaxoSmithKline, LLC, priority 2012, dated 2018).
Where two headings read alike, the source gives them in different places. Blank lines part the entries; values can stand above or below the compound they belong to.

Target: T1, SIRT1 (Homo sapiens, UniProt Q96EB6)
T1 sequence (Q96EB6 1-747): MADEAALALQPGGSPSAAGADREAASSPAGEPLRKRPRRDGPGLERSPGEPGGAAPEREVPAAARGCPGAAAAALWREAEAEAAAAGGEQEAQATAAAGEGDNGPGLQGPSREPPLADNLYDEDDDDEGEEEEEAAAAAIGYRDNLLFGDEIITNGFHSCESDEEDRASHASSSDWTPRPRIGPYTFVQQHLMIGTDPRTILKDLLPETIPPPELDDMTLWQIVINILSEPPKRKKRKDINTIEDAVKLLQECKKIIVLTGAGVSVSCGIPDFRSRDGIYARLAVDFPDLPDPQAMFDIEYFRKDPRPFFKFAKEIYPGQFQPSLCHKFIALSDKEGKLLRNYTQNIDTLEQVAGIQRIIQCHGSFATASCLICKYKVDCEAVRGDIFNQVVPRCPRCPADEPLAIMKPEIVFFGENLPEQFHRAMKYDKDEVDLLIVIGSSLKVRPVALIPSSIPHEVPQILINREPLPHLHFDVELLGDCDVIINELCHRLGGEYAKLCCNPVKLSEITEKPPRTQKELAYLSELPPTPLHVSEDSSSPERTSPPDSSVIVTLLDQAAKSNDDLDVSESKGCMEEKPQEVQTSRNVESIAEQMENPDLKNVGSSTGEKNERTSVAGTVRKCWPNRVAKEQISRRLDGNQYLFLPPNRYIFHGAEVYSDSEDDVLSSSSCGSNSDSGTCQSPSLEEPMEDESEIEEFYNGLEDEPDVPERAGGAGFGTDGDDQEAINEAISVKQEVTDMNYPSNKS
Assay: TAMRA based mass spectrometry assay of SIRT1 activity
Assay type: biochemical
Conditions: for Emax: read-out: TAMRA % Fold Act
In short: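 Recombinant N-terminal His-tagged human SIRT1 (10 nM, E. coli) incubated 25 min at 25 °C with 0.5 μM 5TMR-labelled p53-derived acetyl-peptide and 120 μM βNAD+ in Tris-acetate pH 8 buffer with DTT and 0.05% BSA, compound at varying concentrations. Stopped with formic acid; deacetylated peptide or OAADPR measured by mass spectrometry relative to DMSO controls.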

[1] = TAMRA assay, concentration giving 150% activation of SIRT1
[2] = TAMRA assay, percent maximum fold activation
[3] = TAMRA peptide substrate, concentration giving 150% activation of SIRT1
[4] = TAMRA peptide substrate, percent maximum fold activation
[5] = concentration of test compound giving 150% activation of SIRT1, TAMRA peptide substrate
[6] = percent maximum fold activation of SIRT1, TAMRA peptide substrate

TAMRA EC1.5 (μM) [1]: A (EC1.5<1 μM) | Emax [2]: ≥ 350%
SMILES: CCOc1ccc(NC(=O)c2c(C)nn3ccc(-c4ccccc4C(F)(F)F)nc23)nn1 [Compound 697]

TAMRA EC1.5 (μM) [1]: A (EC1.5<1 μM) | Emax [2]: ≥ 350%
SMILES: Cc1nn2ccc(-c3ccccc3C(F)(F)F)nc2c1C(=O)Nc1cncc(F)c1 [Compound 768]

TAMRA EC1.5 (μM) [1]: A (EC1.5<1 μM) | Emax [2]: ≥ 350%
SMILES: Cc1nccc(NC(=O)c2c(C)nc3c(C)cc(-c4ccccc4C(F)(F)F)nn23)n1 [Compound 729]

TAMRA EC1.5 (μM) [1]: C (EC1.5>25 μM) | Emax [2]: < 350%
SMILES: Cc1cc(NC(=O)c2c(O)nc3ccc(-c4ccccc4C(F)(F)F)nn23)cc(C)n1 [Compound 341]

TAMRA EC1.5 [3]: A (EC1.5<1 μM) | Emax [4]: ≥ 350%
SMILES: Cc1cc(NC(=O)c2cnc3ccc(-c4ccccc4C(F)(F)F)nn23)cc(OC[C@H](O)CO)n1 [Compound 557]

TAMRA EC1.5 (μM) [1]: B (EC1.5 1-25 μM) | Emax [2]: ≥ 350%
SMILES: N#Cc1ccccc1-c1ccc2ncc(NC(=O)c3ncccn3)n2n1 [Compound 331]

TAMRA EC1.5 (μM) [1]: A (EC1.5<1 μM) | Emax [2]: ≥ 350%
SMILES: Cc1nc(C(=O)Nc2cnc3ccc(-c4ccccc4C#N)nn23)c(C)s1 [Compound 334]

TAMRA EC1.5 (μM) [1]: C (EC1.5>25 μM) | Emax [2]: < 350%
SMILES: Cc1ccc(NC(=O)c2cnn3ccc(-c4ccccc4OC(F)(F)F)nc23)nc1 [Compound 608]

TAMRA EC1.5 (μM) [5]: A (EC1.5<1 μM) | Emax [6]: ≥ 350%
SMILES: O=C(Nc1ccncc1F)c1cnc2ccc(-c3ccccc3C(F)(F)F)nn12 [Compound 100]

TAMRA EC1.5 (μM) [5]: C (EC1.5>25 μM) | Emax [6]: < 350%
SMILES: Cc1noc(C)c1-c1ccc2ncc(C(=O)Nc3ccnc(N4CCC4)c3)n2n1 [Compound 55]

TAMRA EC1.5 (μM) [1]: A (EC1.5<1 μM) | Emax [2]: ≥ 350%
SMILES: O=C(Nc1cc(O)ncn1)c1cnn2ccc(-c3ccccc3C(F)(F)F)nc12 [Compound 813]

TAMRA EC1.5 (μM) [1]: A (EC1.5<1 μM) | Emax [2]: ≥ 350%
SMILES: CC1(COc2cccc(NC(=O)c3cnc4ccc(-c5ccccc5C(F)(F)F)nn34)n2)COC1 [Compound 295]

TAMRA EC1.5 (μM) [1]: A (EC1.5<1 μM) | Emax [2]: ≥ 350%
SMILES: Cc1nc(C(=O)Nc2cnc3ccc(-c4ccccc4OC(F)(F)F)nn23)c(C)s1 [Compound 318]

TAMRA EC1.5 (μM) [5]: B (EC1.5 1-25 μM) | Emax [6]: < 350%
SMILES: O=C(Nc1ccccn1)c1cnc2ccc(-c3cccc(Cl)c3F)nn12 [Compound 142]

TAMRA EC1.5 (μM) [5]: A (EC1.5<1 μM) | Emax [6]: ≥ 350%
SMILES: O=C(Nc1cnc2ccc(-c3ccccc3C(F)(F)F)nn12)c1cnccn1 [Compound 88]

TAMRA EC1.5 [3]: A (EC1.5<1 μM) | Emax [4]: ≥ 350%
SMILES: Cc1scnc1C(=O)Nc1cnc2c(C)c(C)c(-c3ccccc3C(F)(F)F)nn12 [Compound 403]

TAMRA EC1.5 (μM) [1]: A (EC1.5<1 μM) | Emax [2]: ≥ 350%
SMILES: Cc1csc(NC(=O)c2cnn3ccc(-c4ccccc4OC(F)(F)F)nc23)n1 [Compound 702]

TAMRA EC1.5 (μM) [1]: A (EC1.5<1 μM) | Emax [2]: ≥ 350%
SMILES: O=C(Nc1cnn2ccc(-c3ccccc3C(F)(F)F)nc12)c1cncc(OC[C@@H](O)CO)n1 [Compound 783]

TAMRA EC1.5 [3]: B (EC1.5 1-25 μM) | Emax [4]: ≥ 350%
SMILES: Cc1nc(C(=O)Nc2c(C)nc3ccc(-c4ccccc4C(F)(F)F)nn23)cs1 [Compound 405]

TAMRA EC1.5 [3]: B (EC1.5 1-25 μM) | Emax [4]: ≥ 350%
SMILES: O=C(Nc1ncccn1)c1ncn2ccc(-c3ccccc3C(F)(F)F)nc12 [Compound 453]

TAMRA EC1.5 (μM) [5]: A (EC1.5<1 μM) | Emax [6]: ≥ 350%
SMILES: Cc1nc2ccc(-c3ccccc3C(F)F)nn2c1C(=O)Nc1ccnc(N2CCOCC2)c1 [Compound 72]

TAMRA EC1.5 (μM) [1]: B (EC1.5 1-25 μM) | Emax [2]: < 350%
SMILES: O=C(Nc1cnc2ccc(-c3ccccc3Cl)nn12)c1nccs1 [Compound 294]

TAMRA EC1.5 (μM) [5]: A (EC1.5<1 μM) | Emax [6]: < 350%
SMILES: O=C(Nc1cccc(CN2CCOCC2)n1)c1cnc2ccc(-c3cccc(F)c3)nn12 [Compound 28]

TAMRA EC1.5 (μM) [1]: A (EC1.5<1 μM) | Emax [2]: ≥ 350%
SMILES: COCc1nccc(NC(=O)c2c(C)nc3c(C)cc(-c4ccccc4C(F)(F)F)nn23)n1 [Compound 733]

TAMRA EC1.5 [3]: A (EC1.5<1 μM) | Emax [4]: ≥ 350%
SMILES: Cc1nc(C(=O)Nc2cnn3ccc(-c4ccccc4C(F)(F)F)nc23)c(C)s1 [Compound 526]

TAMRA EC1.5 [3]: A (EC1.5<1 μM) | Emax [4]: ≥ 350%
SMILES: Cc1nc2ccc(-c3ccccc3OC(F)(F)F)nn2c1C(=O)Nc1ccncc1 [Compound 497]

TAMRA EC1.5 (μM) [1]: A (EC1.5<1 μM) | Emax [2]: ≥ 350%
SMILES: Cc1cc(C)nc(C(=O)Nc2cnn3ccc(-c4ccccc4C(F)(F)F)nc23)n1 [Compound 801]

TAMRA EC1.5 (μM) [1]: A (EC1.5<1 μM) | Emax [2]: ≥ 350%
SMILES: O=C(Nc1cccc(CN2CC[C@@H](F)C2)n1)c1cnc2ccc(-c3ccccc3C(F)(F)F)nn12 [Compound 390]

TAMRA EC1.5 [3]: B (EC1.5 1-25 μM) | Emax [4]: < 350%
SMILES: CN(C)[C@H]1CCN(c2ccc3ncc(C(=O)Nc4cccc(N5CCOCC5)n4)n3n2)C1 [Compound 510]

TAMRA EC1.5 [3]: B (EC1.5 1-25 μM) | Emax [4]: < 350%
SMILES: Cc1nn2ccc(-c3ccccc3C(F)(F)F)nc2c1NC(=O)c1ncccn1 [Compound 570]

TAMRA EC1.5 [3]: A (EC1.5<1 μM) | Emax [4]: ≥ 350%
SMILES: Cc1cc(NC(=O)c2cnc3c(C)cc(-c4ccccc4C(F)(F)F)nn23)cc(C)n1 [Compound 528]

TAMRA EC1.5 [3]: A (EC1.5<1 μM) | Emax [4]: ≥ 350%
SMILES: Cc1cc(C)nc(NC(=O)c2c(C)nc3c(C)cc(-c4ccccc4OC(F)(F)F)nn23)c1 [Compound 493]

TAMRA EC1.5 (μM) [5]: A (EC1.5<1 μM) | Emax [6]: ≥ 350%
SMILES: O=C(Nc1cccc(CN2CCOCC2)n1)c1cnc2ccc(-c3ccccc3F)nn12 [Compound 135]

TAMRA EC1.5 (μM) [1]: A (EC1.5<1 μM) | Emax [2]: ≥ 350%
SMILES: O=C(Nc1cncc(N2CCOCC2)c1)c1cnc2ccc(-c3ccccc3C(F)(F)F)nn12 [Compound 217]

TAMRA EC1.5 (μM) [1]: B (EC1.5 1-25 μM) | Emax [2]: < 350%
SMILES: Cc1ccc(NC(=O)c2cnn3ccc(-c4ccccc4OC(F)(F)F)nc23)c(C)n1 [Compound 625]

TAMRA EC1.5 (μM) [1]: A (EC1.5<1 μM) | Emax [2]: ≥ 350%
SMILES: N#Cc1ccccc1-c1ccc2ncc(NC(=O)c3ccccn3)n2n1 [Compound 328]

TAMRA EC1.5 [3]: B (EC1.5 1-25 μM) | Emax [4]: ≥ 350%
SMILES: O=C(Nc1cnn2ccc(-c3ccccc3OC(F)(F)F)nc12)c1ccncn1 [Compound 585]

TAMRA EC1.5 (μM) [1]: B (EC1.5 1-25 μM) | Emax [2]: < 350%
SMILES: O=C(Nc1ccnc(OCC(F)(F)F)n1)c1cnc2ccc(-c3ccccc3C(F)(F)F)nn12 [Compound 325]

TAMRA EC1.5 (μM) [1]: A (EC1.5<1 μM) | Emax [2]: ≥ 350%
SMILES: Cc1ccc(NC(=O)c2c(C)nc3ccc(-c4ccccc4C(F)(F)F)nn23)nn1 [Compound 664]

TAMRA EC1.5 [3]: A (EC1.5<1 μM) | Emax [4]: ≥ 350%
SMILES: Cc1cccc(NC(=O)c2cnc3c(C)cc(-c4ccccc4C(F)(F)F)nn23)n1 [Compound 539]

TAMRA EC1.5 (μM) [5]: B (EC1.5 1-25 μM) | Emax [6]: ≥ 350%
SMILES: O=C(Nc1cccnn1)c1cnc2ccc(-c3ccccc3C(F)(F)F)nn12 [Compound 79]

TAMRA EC1.5 [3]: A (EC1.5<1 μM) | Emax [4]: ≥ 350%
SMILES: Cc1cc(-c2ccccc2C(F)(F)F)nn2c(NC(=O)c3ncccn3)cnc12 [Compound 410]

TAMRA EC1.5 (μM) [5]: B (EC1.5 1-25 μM) | Emax [6]: ≥ 350%
SMILES: O=C(Nc1cc(OCC(O)CO)ccn1)c1cnc2ccc(-c3ccccc3C(F)(F)F)nn12 (stereo not drawn) [Compound 75, N-(4-(2,3-dihydroxypropoxy)pyridin-2-yl)-6-(2-(trifluoromethyl)phenyl)imidazo[1,2-b]pyridazine-3-carboxamide]

TAMRA EC1.5 [3]: A (EC1.5<1 μM) | Emax [4]: ≥ 350%
SMILES: Cc1nc2ccc(-c3ccccc3OC(F)(F)F)nn2c1C(=O)Nc1cccnn1 [Compound 470]

TAMRA EC1.5 (μM) [5]: C (EC1.5>25 μM) | Emax [6]: < 350%
SMILES: Cc1ncccc1-c1ccc2ncc(C(=O)Nc3ccnc(N4CCC4)c3)n2n1 [Compound 63]

TAMRA EC1.5 (μM) [1]: C (EC1.5>25 μM) | Emax [2]: < 350%
SMILES: Cc1nc2ccc(-c3ccccc3Cl)nn2c1NC(=O)c1cscn1 [Compound 350]

TAMRA EC1.5 (μM) [5]: B (EC1.5 1-25 μM) | Emax [6]: < 350%
SMILES: O=C(Nc1nccs1)c1cnc2ccc(-c3cccc(C(F)(F)F)c3)nn12 [Compound 3]

TAMRA EC1.5 [3]: A (EC1.5<1 μM) | Emax [4]: < 350%
SMILES: Cc1nc2c(C)cc(-c3ccccc3OC(F)(F)F)nn2c1C(=O)Nc1ccc(F)cn1 [Compound 495]

TAMRA EC1.5 (μM) [1]: A (EC1.5<1 μM) | Emax [2]: ≥ 350%
SMILES: Cc1c(-c2ccccc2Cl)nn2c(C(=O)Nc3cccc(N4CCOCC4)n3)cnc2c1C [Compound 229]

TAMRA EC1.5 (μM) [1]: A (EC1.5<1 μM) | Emax [2]: ≥ 350%
SMILES: Cc1ccnc(NC(=O)c2c(C)nc3ccc(-c4cccc(OC[C@H](O)CO)c4)nn23)c1 [Compound 798]

TAMRA EC1.5 (μM) [5]: C (EC1.5>25 μM) | Emax [6]: < 350%
SMILES: O=C(Nc1cccnc1)c1cnc2ccc(-c3c(F)cccc3F)nn12 [Compound 169]
